The conditions of data set [1]: cited from earlier work.
The nature of data set [2]: Prediction of liver cell hypertrophy using SVM from post-translational modification data. The arrangement: species or system rat.
[3] abbreviates: SVM prediction of liver cell hypertrophy, training set, top-ranked 20 sets of post-translational modification data.
Setting [4] is: known carcinogenicity of chemical, Tables 1 to 3.
Where [5] appears, read: known carcinogenicity of chemical, Tables 8 to 11.

The structures appear in SMILES notation. Read-outs that look alike come from different tables or passages of the source.

`CCSCCC(N)C(=O)O` (racemic) [D,L-ethionin]: the Carcinogenicity entry in data set [1] (in vivo) is “+”.

`CC(C)[C@@H]1CC[C@@H](C)C[C@H]1O` (racemic) [DL-menthol]: the Carcinogenicity result in data set [1] (in vivo) is recorded as “−”. Moreover, in data set [2], the Prediction result is given as “+1 CORRECT”. Besides, in the data set with liver cell (rat, in vivo), the “Finding of hepatocyte hypertrpy” value is reported as “+” and the “pathology of liver cell hypertrophy in the liver” value (shortened to “pathology”) is recorded as “pathology of liver cell hypertrophy was seen”.

In the case of `Clc1ccc(Cl)cc1` [1,4-Dichlorobenzene], the Carcinogenicity result in data set [1] (in vivo) is listed as “+”. Further, the Prediction result in data set [2] is reported as “+1 CORRECT”. Besides, in the data set on liver cell (rat, in vivo), the “Finding of hepatocyte hypertrpy” value is “+” and the “pathology” value was “pathology of liver cell hypertrophy was seen”.

Consider `C1COCCO1` [1,4-Dioxane], for which, in data set [2], the Prediction result is −1 CORRECT. Further, in the data set with liver cell (rat, in vivo), the “Finding of hepatocyte hypertrpy” value is “−” and the “pathology” value is “no pathology of liver cell hypertrophy was seen”.

In the case of `CC(O)CCl` (centres unmarked) [1-Chloro-2-propanol], the Carcinogenicity entry in data set [1] (in vivo) is “−”.

With `O=[N+]([O-])c1cccc2ccccc12` [1-Nitronaphthalene], the Carcinogenicity entry in data set [1] (in vivo) is on record as “−”.

Turning to `Cc1ccc(N)cc1N` [2,4-Diaminotoluene], the Carcinogenicity result in data set [1] (in vivo) is reported as “+”. Also, the Prediction result in data set [2] is −1 CORRECT. In addition, in the data set on liver cell (rat, in vivo), the “Finding of hepatocyte hypertrpy” value was “−” and the “pathology” value is “no pathology of liver cell hypertrophy was seen”.

Take `Cc1cc(N)ccc1N.O=S(=O)(O)O` [2,5-Toluenediamine sulfate]: the Carcinogenicity entry in data set [1] (in vivo) is “−”.

As to `Cc1c(N)cccc1N` [2,6-Diaminotoluene], in data set [2] (setting [3]), the Prediction result is recorded as −1 CORRECT. In the data set on liver cell (rat, in vivo), the “Finding of hepatocyte hypertrpy” value is reported as “−” and the “pathology” value is “no pathology of liver cell hypertrophy was seen”.

In the case of `Cl.ClCc1ccccn1` [2-(Chloromethyl)pyridine hydrochloride], the Carcinogenicity result in data set [1] (setting [4]) was “−”. For the same compound, the Carcinogenicity entry in data set [1] (setting [5]) was “−”. In addition, the Prediction result in data set [2] is −1 CORRECT. Further, in the data set with liver cell (rat, in vivo), the “Finding of hepatocyte hypertrpy” value is “−” and the “pathology” value is reported as “no pathology of liver cell hypertrophy was seen”.

On to `Cn1c(N)nc2ncc(-c3ccccc3)cc21` [2-Amino-1-methyl-6-phenylimidazo[4,5-b]-pyridine], for which, in data set [1] (in vivo), the Carcinogenicity entry was “+”.

Turning to `Cc1cnc2ccc3c(nc(N)n3C)c2n1` [2-Amino-3,8-dimethylimidazo[4,5-f]-quinoxaline], the Carcinogenicity result in data set [1] (in vivo) was “+”.

For `Nc1ccc(N)c(Cl)c1.O=S(=O)(O)O` [2-Chloro-p-phenylenediamine sulfate], in data set [1] (in vivo), the Carcinogenicity entry is reported as “−”.

On to `CC(C)[N+](=O)[O-]` [2-Nitropropane], for which the Prediction result in data set [2] is −1 CORRECT. For the same compound, in the data set on liver cell (rat, in vivo), the “Finding of hepatocyte hypertrpy” value was “−” and the “pathology” value is reported as “no pathology of liver cell hypertrophy was seen”.

Turning to `Cc1ccc(N)cc1Cl` [3-Chloro-p-toluidine], the Carcinogenicity result in data set [1] (in vivo) is “−”.

Take `Cc1ccc2cc3c(ccc4ccccc43)c3c2c1CC3` [3-Methylcholantrene]: the Carcinogenicity result in data set [1] (in vivo) is recorded as “+”.

Turning to `CC(=O)Nc1ccc(C(=O)CCl)cc1` [4-(Chloroacetyl)acetanilide], in data set [1] (in vivo), the Carcinogenicity result was “−”.

In the case of `CN(C)c1ccc(N=Nc2ccccc2)cc1` [4-Dimethylaminoaxobenzene], the Carcinogenicity result in data set [1] (in vivo) was “+”.

In the case of `Nc1ccc([N+](=O)[O-])cc1N` [4-Nitro-o-phenylenediamine], the Carcinogenicity result in data set [1] (in vivo) was “−”. Further, the Prediction result in data set [2] is given as −1 CORRECT. In addition, in the data set on liver cell (rat, in vivo), the “Finding of hepatocyte hypertrpy” value is on record as “−” and the “pathology” value was “no pathology of liver cell hypertrophy was seen”.

On to `Nc1cc([N+](=O)[O-])ccc1C(=O)O` [4-Nitroanthranylic acid], for which, in data set [1] (in vivo), the Carcinogenicity entry was “−”.

`Cc1c2ccccc2c(C)c2c1ccc1ccccc12` [7,12-Dimethylbenzanthracene]: in data set [1] (in vivo), the Carcinogenicity entry is “+”.

Consider `Oc1cccc2cccnc12` [8-Hydrxyquinoline], for which the Carcinogenicity result in data set [1] (in vivo) was “−”. In addition, the Prediction result in data set [2] was −1 CORRECT. In the data set with liver cell (rat, in vivo), the “Finding of hepatocyte hypertrpy” value is reported as “−” and the “pathology” value was “no pathology of liver cell hypertrophy was seen”.

In the case of `CC(N)=O` [Acetamide], in data set [1] (in vivo), the Carcinogenicity result is recorded as “+”.

With `ClC1=C(Cl)C2(Cl)C3C4C=CC(C4)C3C1(Cl)C2(Cl)Cl` (centres unmarked) [Aldrin], the Carcinogenicity entry in data set [1] (in vivo) is on record as “+”. For the same compound, in data set [2], the Prediction result was −1 CORRECT. In the data set on liver cell (rat, in vivo), the “Finding of hepatocyte hypertrpy” value is recorded as “−” and the “pathology” value was “no pathology of liver cell hypertrophy was seen”.

For `CC(=O)Oc1ccccc1C(=O)O` [Aspirin], the Carcinogenicity result in data set [1] (setting [4]) and in data set [1] (setting [5]) was “−” in each case.

Turning to `c1ccc2cc3c(ccc4ccccc43)cc2c1` [Benz(a)anthracene], the Carcinogenicity entry in data set [1] (in vivo) is “+”.

Regarding `O=C(c1ccccc1)C(O)c1ccccc1` (centres unmarked) [Benzoin], the Carcinogenicity result in data set [1] (in vivo) was “−”.

For the compound `COc1ccc(O)c(C(C)(C)C)c1` [Butylated hydroxyanisole], in data set [1] (in vivo), the Carcinogenicity result is “+”. In addition, the Prediction result in data set [2] is reported as −1 CORRECT. In the data set on liver cell (rat, in vivo), the “Finding of hepatocyte hypertrpy” value is on record as “−” and the “pathology” value was “no pathology of liver cell hypertrophy was seen”.

In the case of `O=C1CCCCCN1` [Caprolactam], the Carcinogenicity entry in data set [1] (setting [4]) and in data set [1] (setting [5]) was “−” throughout.

In the case of `ClC(Cl)(Cl)Cl` [Carbon tetrachloride], the Carcinogenicity result in data set [1] (in vivo) is listed as “+”. The Prediction result in data set [2] is given as −1 CORRECT. Further, in the data set with liver cell (rat, in vivo), the “Finding of hepatocyte hypertrpy” value is given as “−” and the “pathology” value is recorded as “no pathology of liver cell hypertrophy was seen”.

As to `O=C(O)C1C(C(=O)O)C2(Cl)C(Cl)=C(Cl)C1(Cl)C2(Cl)Cl` (centres unmarked) [Chlorendic acid], in data set [1] (in vivo), the Carcinogenicity result was “+”.

`ClC(Cl)Cl` [Chloroform]: in data set [1] (in vivo), the Carcinogenicity entry is on record as “+”.

Regarding `CCOC(=O)C(C)(C)Oc1ccc(Cl)cc1` [Clofibrate], in data set [1] (setting [4]), the Carcinogenicity result was “+”. Also, in data set [1] (setting [5]), the Carcinogenicity entry is “+”. In addition, in the data set with liver cell (rat, in vivo), the “Finding of hepatocyte hypertrpy” value is given as “+” and the “pathology” value is given as “pathology of liver cell hypertrophy was seen”.

Consider `OC[C@@H](O)[C@@H](O)[C@H](O)[C@H](O)CO` [D-mannitol], for which, in data set [1] (setting [4]), the Carcinogenicity entry is given as “−”. For the same compound, the Carcinogenicity result in data set [1] (setting [5]) is listed as “−”. The Prediction result in data set [2] (setting [3]) was −1 CORRECT. Further, in the data set with liver cell (rat, in vivo), the “Finding of hepatocyte hypertrpy” value is “−” and the “pathology” value is recorded as “no pathology of liver cell hypertrophy was seen”.

`CCCCC(CC)COC(=O)CCCCC(=O)OCC(CC)CCCC` (centres unmarked) [Di(2-ethylhexyl)adipate]: the Prediction result in data set [2] was 1. Also, in the data set with liver cell (rat, in vivo), the “Finding of hepatocyte hypertrpy” value is “−” and the “pathology” value is given as “no pathology of liver cell hypertrophy was seen”.

Take `CCCCC(CC)COC(=O)c1ccccc1C(=O)OCC(CC)CCCC` (centres unmarked) [Di(2-ethylhexyl)phthalate]: the Carcinogenicity entry in data set [1] (in vivo) was “+”. For the same compound, in data set [2] (setting [3]), the Prediction result was −1 (−1 and 1 indicates the incorrectly predicted compounds). Also, in the data set with liver cell (rat, in vivo), the “Finding of hepatocyte hypertrpy” value is “+” and the “pathology” value is “pathology of liver cell hypertrophy was seen”.

As for `CC/C(=C(/CC)c1ccc(O)cc1)c1ccc(O)cc1` [Diethylstilbestrol], the Carcinogenicity result in data set [1] (setting [4]) and in data set [1] (setting [5]) was “+” throughout.

In the case of `C#C[C@]1(O)CC[C@H]2[C@@H]3CCc4cc(O)ccc4[C@H]3CC[C@@]21C` [Ethinylestradiol], the Carcinogenicity result in data set [1] (setting [4]) and in data set [1] (setting [5]) was “+” throughout. Besides, in the data set with liver cell (rat, in vivo), the “Finding of hepatocyte hypertrpy” value is listed as “−”. For the same compound, the “pathology” value in the data set on liver cell (rat, in vivo) was “no pathology of liver cell hypertrophy was seen”.

`O=CCCCC=O` [Glutaraldehyde]: the Carcinogenicity entry in data set [1] (setting [4]) and in data set [1] (setting [5]) was “−” throughout.

On to `Clc1c(Cl)c(Cl)c(Cl)c(Cl)c1Cl` [Hexachlorobenzene], for which, in the data set on liver cell (rat, in vivo), the “Finding of hepatocyte hypertrpy” value is “+”.

On to `O=C1O[C@H]([C@@H](O)CO)C(O)=C1O` [L-ascorbic acid], for which, in data set [2] (setting [3]), the Prediction result is −1 CORRECT. Further, the “Finding of hepatocyte hypertrpy” value in the data set on liver cell (rat, in vivo) is “−”.

Turning to `COC(N)=O` [Methyl carbamate], the Prediction result in data set [2] (setting [3]) is −1 CORRECT. Further, the “pathology” value in the data set on liver cell (after 28 days repeated administration) is given as “no pathology of liver cell hypertrophy was seen”. The “Finding of hepatocyte hypertrpy” value in the data set on liver cell (rat liver after 28 days repeated administration) is “−”.

On to `CCN(N=O)C(N)=O` [N-ethy-N-nitrosourea], for which the Carcinogenicity result in data set [1] (in vivo) is listed as “+”.

Turning to `CN(C)N=O` [N-nitrsodimethylamine], in data set [1] (in vivo), the Carcinogenicity result was “+”.

In the case of `ClC(Cl)C(Cl)(Cl)Cl` [Pentachloroethane], the Carcinogenicity result in data set [1] (in vivo) is listed as “+”.

Regarding `CCC1(c2ccccc2)C(=O)NC(=O)NC1=O` [Phenobarbital], in the data set with liver cell (rat, in vivo), the “Finding of hepatocyte hypertrpy” value was “+” and the “pathology” value is “pathology of liver cell hypertrophy was seen”.

`O=C1NC(=O)C(c2ccccc2)(c2ccccc2)N1` [Phenytoin sodium]: the Carcinogenicity result in data set [1] (setting [4]) and in data set [1] (setting [5]) was “+” each time.

Consider `NC(=O)c1ccccc1C(N)=O` [Phthalamide], for which the Carcinogenicity entry in data set [1] (setting [4]) and in data set [1] (setting [5]) was “−” each time.

With `ClC(Cl)=C(Cl)Cl` [Tetrachloroethylene], the Carcinogenicity entry in data set [1] (in vivo) was “+”.

As for `CC(=N)S` [Thioacetamide], the Carcinogenicity result in data set [1] (in vivo) is reported as “+”.

Take `O=C(O)C(Cl)(Cl)Cl` [Trichloroacetic acid]: the Carcinogenicity result in data set [1] (in vivo) is given as “+”.

In the case of `CCOC(N)=O` [Urethane], the Carcinogenicity result in data set [1] (setting [4]) and in data set [1] (setting [5]) was “+” each time.

Consider `Cl.Cl.Nc1ccc(N)cc1` [p-Phenylenediamine dihydrochloride], for which the Carcinogenicity entry in data set [1] (in vivo) was “−”.

The values above are taken from patent US20090134028A1, “Method of Estimating Effect of Test Chemical on Living Organisms” (Chemicals Evaluation and Research Institute, priority 2005, published 2009).
